# Measurements reported in article PMC9709777, “Enzyme-instructed morphology transformation of mitochondria-targeting peptide for the selective eradication of osteosarcoma” (RSC Chemical Biology, 2022).
# Read-outs that look alike come from different tables or passages of the source.
# Legend:
# [1] = Surface charge (zeta potential) analysis; assay type: physicochemical; conditions: 15 μM solution (over the CAC value)
# [2] = Cell viability in the presence of ALP inhibitor NBT-BCIP; assay type: cell-based; conditions: co-treatment with NBT-BCIP solution
# Experimental: (§1) To confirm that the cytotoxicity of L-Mito-FFYp stems from its selectivity toward ALP and the consequent morphology transformation, the cytotoxicity was evaluated toward Saos-2, HeLa, SK-BR-3, and NIH-3T3 cell lines. SK-BR-3 and NIH-3T3 cell lines are known to express fewer ALP enzymes. […] And the cytotoxicity of L-Mito-FFYp in the Saos-2 cell line was analyzed in the presence and absence of endocytosis inhibitors such as chlorpromazine (clathrin), sucrose (macropinocytosis), and M-β-cyclodextrin (caveolin). […] To further verify the important role of the phosphate moiety, we synthesized L-Mito-FFY compound (Fig. S2, ESI ^†). […] After phosphoric acid was cleaved by the ALP enzyme overexpressed in the Saos-2 cell membrane, Mito-FFY was accumulated in the mitochondria. As a result, apoptosis occurred due to mitochondrial membrane disruption induced by self-assembled fibers inside the mitochondria.
# Figure S14. Cell viability analysis of Mito-FFYp in the presence of ALP inhibitor, NBT-BCIP.
# (1 picture or pasted object on this page, not shown here)
# [3] = system: NIH-3T3 cell line; assay: Cell viability, MTT assay; assay type: cell-based; conditions: NIH 3T3, 10 μM, 48 h incubation
# Experimental: as §1
# (§2) Fig. 3 (A) Cell viability analysis of L-Mito-FFYp in Saos-2, HeLa, SK-BR-3 and NIH 3T3 cell lines for an incubation time of 48 h. (B) Cell viability analysis of L-Mito-FFYp in the presence of different endocytosis inhibitos. […] (E) Western blotting analysis showing the release of cytochrome C after treatment with L-Mito-FFYp. […]
# [4] = system: HeLa cells; assay: Cell viability, MTT assay; assay type: cell-based; conditions: 48 h incubation, read-out: Concentration at which 50% viability was observed
# Experimental: as §1, §2
# [5] = TEM analysis of self-assembled morphology, with and without ALP enzyme; assay type: physicochemical; conditions: 15 μM, before ALP treatment
# Experimental: L-Mito-FFYp consists of a tripeptide backbone Phe–Phe–Tyrp (Tyrp stands for tyrosine phosphate) in which pyrene butyric acid is capped on the N-terminus to promote the self-assembly and TPP is conjugated to the amine group of the lysine side chain for targeting the mitochondria (Fig. S1, ESI ^†). The CAC of L-Mito-FFYp was determined to be 12 μM via pyrene excitation method (Fig. 1A). […] The EIMT of L-Mito-FFYp was investigated by treating it with ALP enzyme. After 24 h incubation (37 °C), fibers having a diameter of ca. 10 nm were observed via transmission electron microscopy (TEM) analysis (Fig. 1D). Specifically, micelles with a diameter of 53 nm were converted into fibers with a diameter of 12.9 nm, most likely by the action of the ALP enzyme. To confirm that the fiber structure corresponded to L-Mito-FFY, L-Mito-FFY was separately synthesized and purified (Fig. S2A and B, ESI ^†). It was supposed after the phosphate group cleaved from the ALP enzyme. The L-tyrosine phosphate was replaced with L-tyrosine. Its self-assembled morphology was analyzed via TEM. […]
# (§3) Imaging of apoptosis/necrosis-dependent cell death. […] The cells were then washed gently, the medium was replaced with DMEM medium, and the cells were analyzed using an LSM780 laser confocal scanning microscope. […]
# [6] = CAC determination by pyrene excitation method; assay type: physicochemical
# Experimental: L-Mito-FFYp consists of a tripeptide backbone Phe–Phe–Tyrp (Tyrp stands for tyrosine phosphate) in which pyrene butyric acid is capped on the N-terminus to promote the self-assembly and TPP is conjugated to the amine group of the lysine side chain for targeting the mitochondria (Fig. S1, ESI ^†). The CAC of L-Mito-FFYp was determined to be 12 μM via pyrene excitation method (Fig. 1A). […] The EIMT of L-Mito-FFYp was investigated by treating it with ALP enzyme. After 24 h incubation (37 °C), fibers having a diameter of ca. 10 nm were observed via transmission electron microscopy (TEM) analysis (Fig. 1D). Specifically, micelles with a diameter of 53 nm were converted into fibers with a diameter of 12.9 nm, most likely by the action of the ALP enzyme. To confirm that the fiber structure corresponded to L-Mito-FFY, L-Mito-FFY was separately synthesized and purified (Fig. S2A and B, ESI ^†). It was supposed after the phosphate group cleaved from the ALP enzyme. The L-tyrosine phosphate was replaced with L-tyrosine. Its self-assembled morphology was analyzed via TEM. Similar fibers with a diameter of 10 nm were observed (Fig. S3, ESI ^†), confirming that ALP transforms the L-Mito-FFYp micelles into L-Mito-FFY fibers.
# Fig. 1 (A) CAC determination of L-Mito-FFYp using pyrene excitation method. […]
# [7] = system: Saos-2 cell line; assay: Cellular ROS by dihydroethidium (DHE) staining, confocal microscopy and flow cytometry; assay type: cell-based; conditions: Saos-2, DHE staining, 20 μM
# [8] = system: Saos-2 cells; assay: FITC-annexin V/PI assay (confocal imaging and FACS) for mechanism of cell death; assay type: cell-based; conditions: FITC-annexin V/PI staining
# Experimental: as §1
# Fig. 3 (A) Cell viability analysis of L-Mito-FFYp in Saos-2, HeLa, SK-BR-3 and NIH 3T3 cell lines for an incubation time of 48 h. […] They are left out because Control is not a substance, and the digits are not readable with certainty […]
# as §3
# [9] = system: cytochrome C; assay: Western blotting of cytochrome C release; assay type: cell-based; conditions: western blotting after treatment
# Experimental: as §1
# Fig. 3 (A) Cell viability analysis of L-Mito-FFYp in Saos-2, HeLa, SK-BR-3 and NIH 3T3 cell lines for an incubation time of 48 h. (B) Cell viability analysis of L-Mito-FFYp in the presence of different endocytosis inhibitos. […] (E) Western blotting analysis showing the release of cytochrome C after treatment with L-Mito-FFYp. […] They are left out because Control is not a substance, and the digits are not readable with certainty
# [10] = system: Saos-2 cell line; assay type: cell-based
# Experimental: as §1
# (§4) Fig. 3 (A) Cell viability analysis of L-Mito-FFYp in Saos-2, HeLa, SK-BR-3 and NIH 3T3 cell lines for an incubation time of 48 h. (B) Cell viability analysis of L-Mito-FFYp in the presence of different endocytosis inhibitos. […] (E) Western blotting analysis showing the release of cytochrome C after treatment with L-Mito-FFYp. TEXT PRINTED IN THE PICTURE: (D) Mito-FFYp: Q1 0.91; Q2 26.4; Q3 8.97; Q4 63.7 DOUBTS OF THE COPYIST ABOUT THIS PICTURE: Mito-FFYp, panel D, Q1: very small blurred print, 0.91 uncertain (could be 0.51 or 0.61) / Mito-FFYp, panel D, Q2: very small blurred print, 26.4 uncertain (6 could be 5 or 8) / Mito-FFYp, panel D, Q3: very small blurred print, 8.97 uncertain (could be 6.97 or 8.57) / Mito-FFYp, panel D, Q4: very small blurred print, 63.7 uncertain (could be 65.7 or 83.7) / Panel D, Control plot also prints quadrant numbers (about Q1 0.090, Q2 0.24, Q3 0.078, Q4 99.6). […]
# (§5) M. T. Jeena,‡a Seongeon Jin,‡ a Batakrishna Jana,a and Ja-Hyoung Ryu,*a Materials. All peptides were synthesized manually on a […] scale. The products were purified by high-performance liquid chromatography (HPLC, Agilent Technologies, USA) with a C-18 reverse column in ACN/water mixture. […]
# [11] = system: SK-BR-3 cell line; assay type: cell-based; conditions: 48 h, 10 μM
# Experimental: as §1, §4, §5
structure (smiles),measurement,setting,value
NC(=O)[C@H](CCCCNCCCCCC[P+](c1ccccc1)(c1ccccc1)c1ccccc1)NC(=O)[C@H](Cc1ccc(OP(=O)(O)O)cc1)NC(=O)[C@H](Cc1ccccc1)NC(=O)[C@H](Cc1ccccc1)NC(=O)CCCc1ccc2ccc3cccc4ccc1c2c34 [L-Mito-FFYp],Surface charge (zeta potential),[1],−25.6 ± 0.32 mV
same,Toxicity in the presence of ALP inhibitor,[2],remarkably reduced
same,Cell viability,[3],~90%
same,IC50,[4],~5 µM
same,Micelle diameter,[5],53 nm
same,Critical Aggregation Concentration (CAC),[6],12 µM
same,Cellular ROS,[7],overproduction of ROS
same,Mechanism of cell death,[8],late apoptosis
same,Cytochrome C release from the mitochondria,[9],released
same,IC50,"[10]; Saos-2, 48 h incubation, MTT, read-out: Concentration at which 50% viability was observed",~5 µM
same,IC50,[10]; human,~10 µM
same,Cell viability,[11],~90%
